Structures can show the parent of a compound that is named as a salt.

This assay deals with cultured human mast cells (CHMC). Kind of assay: CHMC low cell density ionomycin activation: tryptase assay. The assay is classed as cell-based.
As usually defined, the IC50 is the midpoint of a concentration-inhibition curve. The molecule `O=C(c1cc2cc(Nc3ncc(F)c(Nc4ccc5c(c4)OCCO5)n3)ccc2o1)N1CCOCC1` [R926492, N4-(3,4-Ethylenedioxyphenyl)-5-fluoro-N2-[2-(N-morpholino)carbonylbenzofuran-5-yl]-2,4-pyrimidinediamine] yielded an IC50 above 10 µM.

In turn, `O=C(c1cc2cc(Nc3ncc(F)c(Nc4ccc5c(c4)OCCO5)n3)ccc2o1)N1CCNCC1` [R926499, N4-(3,4-Ethylenedioxyphenyl)-5-fluoro-N2-[2-(N-piperazino)carbonylbenzofuran-5-yl]-2,4-pyrimidinediamine] yielded a 50% inhibitory concentration (IC50) above 10 µM.

`O=C(c1cc2cc(Nc3ncc(F)c(Nc4cccc(O)c4)n3)ccc2o1)N1CCNCC1` [R926500, 5-Fluoro-N4-(3-hydroxyphenyl)-N2-[2-(N-piperazino)carbonylbenzofuran-5-yl]-2,4-pyrimidinediamine] showed an IC50 above 10 µM. `O=C(COc1cccc(Nc2ncc(F)c(Nc3ccc4c(c3)OCCO4)n2)c1)N1CCNCC1` [R926504, N4-(3,4-Ethylenedioxyphenyl)-5-fluoro-N2-[3-(N-piperazino)carbonylmethyleneoxyphenyl]-2,4-pyrimidinediamine Hydrogen Chloride Salt] came in with an IC50 above 10 µM.

`CCOC(=O)COc1ccc(Nc2nc(Nc3ccc(OCC(=O)OCC)cc3)c(NC(=O)NC(=O)CCl)c(C(=O)OCC)n2)cc1` [R926589, N2,N4-Bis(4-ethoxycarbonylmethyleneoxyphenyl)-6-ethoxycarbonyl-5-(chloroacetylaminocarbonylamino)-2,4-pyrimidinediamine] gave an IC50 of 10 µM. The figure for `CN(CCO)C(=O)c1cc2cc(Nc3ncc(F)c(Nc4cccc(O)c4)n3)ccc2o1` [R926725, 5-Fluoro-N4-(3-hydroxyphenyl)-N2-[2-(N-methyl-N-2-hydroxyethyl)carbonylbenzofuran-5-yl)-2,4-pyrimidinediamine] is above 10 µM. Turning to `CNC(=O)COc1cccc(Nc2ncc(F)c(Nc3ccc(C)c(O)c3)n2)c1` [R926753, 5-Fluoro-N4-(3-hydroxy-4-methylphenyl)-N2-[3-[(N-methylamino)carbonylmethyleneoxy]phenyl]-2,4-pyrimidinediamine], the IC50 was above 10 µM. Turning to `CNC(=O)COc1cc(Nc2ncc(F)c(Nc3cccc(O)c3)n2)ccc1C` [R926757, 5-Fluoro-N4-(3-hydroxyphenyl)-N2-[4-methyl-3-[(N-methylamino)carbonylmethyleneoxy]phenyl]-2,4-pyrimidinediamine], the IC50 was above 10 µM.

Take `O=C(c1cc2cc(Nc3ncc(F)c(Nc4ccc5c(c4)OCCO5)n3)ccc2o1)N1CCCNCC1` [R926767, N4-(3,4-Ethylenedioxyphenyl)-5-fluoro-N2-[2-(N-homopiperazino)carbonylbenzofuran-5-yl]-2,4-pyrimidinediamine]: the IC50 was above 10 µM. As for `O=C(c1cc2cc(Nc3ncc(F)c(Nc4ccc5c(c4)OCCO5)n3)ccc2o1)N1CCCNCC1` [R926768, N4-(3,4-Ethylenedioxyphenyl)-5-fluoro-N2-[2-(N-homopiperazino)carbonylbenzofuran-5-yl]-2,4-pyrimidinediamine Hydrogen Chloride Salt], the figure is above 10 µM. As for `CNC(=O)COc1cccc(Nc2ncc(F)c(Nc3ccc4c(c3)OCCO4)n2)c1` [R926816, N4-(3,4-Ethylenedioxyphenyl)-5-fluoro-N2-[3-(N-methylamino)carbonylmethyleneoxyphenyl]-2,4-pyrimidinediamine Hydrogen Chloride Salt], the figure is above 10 µM; as for `CC(C)NC(=O)COc1cccc(Nc2ncc(F)c(Nc3ccc4c(c3)OCCO4)n2)c1` [R926830, N4-(3,4-Ethylenedioxyphenyl)-5-fluoro-N2-[3-(N-isopropylamino)carbonylmethyleneoxyphenyl]-2,4-pyrimidinediamine], 10 µM; as for `O=C(COc1cccc(Nc2ncc(F)c(Nc3ccc4c(c3)OCCO4)n2)c1)NC1CC1` [R926848, N2-[3-(N-Cyclopropylamino)carbonylmethyleneoxyphenyl]-N4-(3,4-ethylenedioxyphenyl)-5-fluoro-2,4-pyrimidinediamine], 10 µM. As for `CNC(=O)COc1cccc(Nc2ncc(F)c(Nc3cccc4c3C(=O)N(C)C4=O)n2)c1` [R926856, 5-Fluoro-N2-[3-(N-methylamino)carbonylmethyleneoxyphenyl]-N4-(N-methylphthalimido-4-yl)-2,4-pyrimidinediamine], the figure is above 10 µM; as for `CNC(=O)COc1cccc(Nc2ncc(F)c(Nc3ccc(OC)c(Cl)c3)n2)c1` [R926891, N4-(3-Chloro-4-methoxyphenyl)-5-fluoro-N2-[3-[(N-methylamino)carbonylmethyleneoxy]phenyl]-2,4-pyrimidinediamine], above 10 µM.

In turn, `CNC(=O)COc1cccc(Nc2ncc(F)c(Nc3ccc(OC)c(F)c3)n2)c1` [R926892, 5-Fluoro-N4-(3-fluoro-4-methoxyphenyl)-N2-[3-[(N-methylamino)carbonylmethyleneoxy]phenyl]-2,4-pyrimidinediamine] gave an IC50 above 10 µM. The figure for `CNC(=O)C(C)(C)Oc1cccc(Nc2ncc(F)c(Nc3cccc(O)c3)n2)c1` [R926913, 5-Fluoro-N4-(3-hydroxyphenyl)-N2-[3-[(N-methylamino)carbonyl-1,1-dimethylmethyleneoxy]phenyl]-2,4-pyrimidinediamine] is above 10 µM; for `CNC(=O)COc1cc(Nc2ncc(F)c(Nc3cccc(O)c3)n2)cc(OCC(=O)NC)c1` [R926930, N2-[3,5-Bis[(N-methylamino)carbonylmethyleneoxy]phenyl]-5-fluoro-N4-(3-hydroxyphenyl)-2,4-pyrimidinediamine] it is above 10 µM. As to `Cc1noc(COc2ccc(Nc3nc(Nc4ccc5c(c4)OCCO5)ncc3F)cc2)n1` [R935145, N2-(3,4-Ethylenedioxyphenyl)-5-fluoro-N4-[4-(3-methyl-1,2,4-oxadiazol-5-yl)methyleneoxyphenyl]-2,4-pyrimidinediamine], the IC50 is above 10 µM.

As to `CNC(=O)C(C)(Oc1cccc(Nc2ncc(F)c(Nc3ccc(OC(C)C)cc3)n2)c1)C(=O)NC` [R935196, N2-[3-(1-Bis(N-methylaminocarbonyl)ethoxy)phenyl]-5-fluoro-N4-(4-isopropoxyphenyl)-2,4-pyrimidineamine], the IC50 was above 10 µM. The molecule `Oc1cccc(Nc2nc(Nc3ccc4[nH]ncc4c3)ncc2F)c1` [R935199, 5-Fluoro-N4-(3-hydroxyphenyl)-N2-(indazoline-5-yl)-2,4-pyrimidinediamine] showed an IC50 above 10 µM. As for `CCOC(=O)CCn1ncc2ccc(Nc3nc(Nc4cccc(O)c4)ncc3F)cc21` [R935292, N4-[1-(2-Ethoxycarbonylethyl)indazoline-6-yl]-5-fluoro-N2-(3-hydroxyphenyl)-2,4-pyrimidinediamine], the figure is above 10 µM; as for `OCCCn1ncc2ccc(Nc3ncc(F)c(Nc4cccc(O)c4)n3)cc21` [R935293, 5-Fluoro-N4-(3-hydroxyphenyl)-N2-[1-(3-hydroxypropyl)indazoline-6-yl]-2,4-pyrimidinediamine], above 10 µM. In the case of `COC(=O)c1cc2cc(Nc3ncc(F)c(Nc4ccc5cnn(CCC(=O)O)c5c4)n3)ccc2o1` [R935296, N4-[1-(2-carboxyethyl)indazolne-6-yl]-5-fluoro-N2-(2-methoxycarbonylbenzofur-5-yl)-2,4-pyrimidinediamine], the IC50 is above 10 µM. Consider `COC(=O)c1ccc(Cn2cc3ccc(Nc4ncc(F)c(Nc5ccc6c(c5)OCCO6)n4)cc3n2)c(OC)c1` [R935336, N4-(3,4-Ethylenedioxyphenyl)-5-fluoro-N2-[2-(2-methoxy-4-carbomethoxybenzyl)indazoline-6-yl]-2,4-pyrimidinediamine], for which the IC50 is above 10 µM.

The molecule `CCOC(=O)CCn1ncc2cc(Nc3ncc(F)c(Nc4ccc(OC(F)(F)F)c(Cl)c4)n3)ccc21` [R935354, N4-(3-Chloro-4-trifluoromethoxy-phenyl)-N2-[1-(2-ethoxycarbonylethyl)indazoline-5-yl]-5-fluoro-2,4-pyrimidinediamine] came in with an IC50 above 10 µM. As for `Cn1ncc2cc(Nc3ncc(F)c(Nc4ccc5c(c4)OC(F)(F)O5)n3)ccc21` [R935357, N4-(3,4-Difluoromethylendioxyphenyl)-5-fluoro-N2-(1-methylindazoline-5-yl)-2,4-pyrimidinediamine], the figure is above 10 µM. The figure for `Fc1cnc(Nc2ccc3cn[nH]c3c2)nc1Nc1cccc(OC(F)(F)F)c1` [R935363, 5-Fluoro-N2-(indazoline-6-yl)-N4-(3-trifluoromethoxyphenyl)-2,4-pyrimidinediamine] is above 10 µM; for `COc1cc(Nc2ncc(F)c(Nc3ccc(OCc4nc(-c5ccccc5)no4)cc3)n2)cc(OC)c1OC` [R935367, 5-Fluoro-N4-[4-(3-phenyl-1,2,4-oxadiazol-5-yl)methyleneoxyphenyl]-N2-(3,4,5-trimethoxyphenyl)-2,4-pyrimidinediamine] it is above 10 µM; for `CNC(=O)CCn1ncc2cc(Nc3ncc(F)c(Nc4ccc(OC(F)(F)F)c(Cl)c4)n3)ccc21` [R935369, N4-(3-Chloro-4-trifluoromethoxyphenyl)-5-fluoro-N2-[1-[2(N-methylaminocarbonyl)ethyl]indazoline-5-yl]-2,4-pyrimidinediamine] it is above 10 µM.

As to `Cc1cc(Nc2nc(Nc3cccc(OCCN4CCOCC4)c3)ncc2F)cc(C)c1O` [R940255, N4-(3,5-Dimethyl-4-hydroxyphenyl)-5-fluoro-N2-[3-[2-(N-morpholino)ethyleneoxy]phenyl]-2,4-pyrimidinediamine], the IC50 was above 10 µM.

In turn, `Cc1cc(Nc2nc(Nc3cccc(OCCN4CCOCC4)c3)ncc2F)cc(C)c1O` [R940256, N4-(3,5-Dimethyl-4-hydroxyphenyl)-5-fluoro-N2-[3-[2-(N-morpholino)ethyloxy]phenyl]-2,4-pyrimidinediamine Hydrogen Chloride Salt] had an IC50 above 10 µM. As for `CC(C)(CO)NC(=O)COc1cccc(Nc2ncc(F)c(Nc3cccc(C(C)(C)C)c3)n2)c1` [R940308, N4-(3-tert-Butylpheny)-5-fluoro-N2-[3-(1,1-dimethyl-2-hydroxyethylaminocarbonylmethyleneoxy)-phenyl]-2,4-pyrimidinediamine], the figure is 4.17 µM; as for `N#CCOc1ccc(Nc2ncc(F)c(Nc3cccc(O)c3)n2)cc1` [R945070, N2-(4-Cyanomethyleneoxyphenyl)-5-fluoro-N4-(3-hydroxyphenyl)-2,4-pyrimidinediamine], above 10 µM.

Values taken from patent publication US9499493B2, “2,4-pyrimidinediamine compounds and their uses” (Rigel Pharmaceuticals, Inc., priority 2002, dated 2016).
